Several values for one entry are separate records, joined by “and”; a condition that tells them apart may be missing. Equal values may be shown once.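 Compound exposure: 48 hours, 5 concentrations, 96-well plates. Here, GI50 denotes the concentration required for 50% inhibition of growth. TGI denotes the concentration required for complete inhibition of growth.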

Among the test systems are NCI/ADR-RES ovarian; SNB-19 CNS; HL-60(TB) leukemia; SF-295 CNS; RXF 393 renal; BT-549 breast; UACC-257 melanoma; KM12 colon; RPMI-8226 leukemia; SF-539 CNS.
Common to all, as to assay: NCI tumour cell line growth inhibition, 48 h

As for `CCOC(=O)c1c(-c2ccc(OC)c(O)c2)c(C#N)c(=S)n(C2OC(COC(C)=O)C(OC(C)=O)C(OC(C)=O)C2OC(C)=O)c1-c1ccccc1` (stereo not given), the GI50 in the test with NCI/ADR-RES ovarian was 48.6 µM and > 100 µM; in the test on HL-60(TB) leukemia, 43.5 µM and > 100 µM; in the test with UACC-257 melanoma, 23.4 µM and > 100 µM; with KM12 colon, 27 µM and > 100 µM; in the test with RPMI-8226 leukemia it was 36.5 µM and 6.1 µM. Also, the TGI with NCI/ADR-RES ovarian is greater than 100 µM; in the test on SNB-19 CNS it was greater than 100 µM; in the test on HL-60(TB) leukemia, greater than 100 µM; in the test on SF-295 CNS it was greater than 100 µM; in the test with RXF 393 renal it was greater than 100 µM; in the test on BT-549 breast, 64 µM. Besides, the TGI in the test with UACC-257 melanoma is 60.8 µM and > 100 µM; in the test with KM12 colon, 83.1 µM and > 100 µM; with RPMI-8226 leukemia, 81.5 µM and > 100 µM.
With `CN(/N=C/c1ccccc1O)c1ccc2ccccc2n1`, the TGI with NCI/ADR-RES ovarian is greater than 100 µM; in the test on SNB-19 CNS, 30.3 µM; with HL-60(TB) leukemia it was greater than 100 µM; with SF-295 CNS it was 30.4 µM; with SF-539 CNS it was 37.1 µM; in the test on RXF 393 renal, 90 µM. The TGI is 61.1 µM in the test with BT-549 breast, greater than 100 µM in the test on UACC-257 melanoma, 65.2 µM in the test with KM12 colon and greater than 100 µM in the test on RPMI-8226 leukemia.
Regarding `CCn1c(SCC(=O)Nc2cc(C(F)(F)F)ccc2Cl)nc2ccccc2c1=O`, the GI50 with NCI/ADR-RES ovarian was 32.8 µM; in the test on SNB-19 CNS, 32.8 µM; with HL-60(TB) leukemia, greater than 100 µM; in the test on SF-295 CNS it was 71.9 µM; in the test on SF-539 CNS it was 40.1 µM; in the test on RXF 393 renal it was 15.6 µM. Moreover, the GI50 in the test on BT-549 breast was 35 µM; with KM12 colon, greater than 100 µM; in the test with RPMI-8226 leukemia, greater than 100 µM. Further, the TGI with NCI/ADR-RES ovarian is greater than 100 µM; in the test with SNB-19 CNS, greater than 100 µM; in the test with HL-60(TB) leukemia, greater than 100 µM; in the test with SF-295 CNS, greater than 100 µM; with SF-539 CNS, greater than 100 µM; in the test on RXF 393 renal, 66.9 µM. The TGI in the test on BT-549 breast, with KM12 colon and in the test with RPMI-8226 leukemia was greater than 100 µM in each case.
With `O=C(Nc1n[nH]c2nc(-c3ccc(O)cc3)c(Br)cc12)C1CC1`, the GI50 in the test on NCI/ADR-RES ovarian was 6.49 µM; in the test on SNB-19 CNS, 6.96 µM; in the test with HL-60(TB) leukemia it was 2.79 µM; in the test with SF-295 CNS, 2.38 µM; with SF-539 CNS, 1.34 µM; in the test on RXF 393 renal, 1.18 µM. Besides, the GI50 in the test with BT-549 breast was 5.78 µM; in the test with UACC-257 melanoma, 6.36 µM; in the test with KM12 colon, 1.54 µM; in the test on RPMI-8226 leukemia, 6.05 µM. The TGI with NCI/ADR-RES ovarian was greater than 25 µM; in the test on SNB-19 CNS, greater than 24.1 µM; with HL-60(TB) leukemia, 15.4 µM; in the test on SF-295 CNS, 14.8 µM; in the test on SF-539 CNS, 6.27 µM; in the test on RXF 393 renal, 5.02 µM. In addition, the TGI in the test with BT-549 breast was 19.8 µM; in the test with UACC-257 melanoma, 17 µM; in the test on KM12 colon, 7.76 µM; in the test on RPMI-8226 leukemia it was 15.7 µM.
`CC1(C)N=c2cc3c(cc2N1c1ccc(Cl)cc1)=Nc1ccccc1N3c1ccc(Cl)cc1`: the GI50 in the test on NCI/ADR-RES ovarian is 5.21 µM; in the test with SNB-19 CNS it was 58.2 µM; in the test with HL-60(TB) leukemia, 1.74 µM; in the test with SF-295 CNS it was 2.08 µM; in the test with SF-539 CNS, 8.97 µM; in the test on RXF 393 renal it was 1.75 µM. Also, the GI50 with BT-549 breast is 3.5 µM; in the test with UACC-257 melanoma, 5.52 µM; with KM12 colon, 6.84 µM; in the test on RPMI-8226 leukemia, 2.05 µM. In addition, the TGI with NCI/ADR-RES ovarian was greater than 100 µM; with SNB-19 CNS, greater than 100 µM; in the test on HL-60(TB) leukemia it was 4.2 µM; with SF-295 CNS, 28.5 µM; in the test with SF-539 CNS, greater than 100 µM; with RXF 393 renal it was 5.77 µM. In addition, the TGI with BT-549 breast was 60.8 µM; with UACC-257 melanoma, greater than 100 µM; with KM12 colon, greater than 100 µM; with RPMI-8226 leukemia it was 11.8 µM.
`C#Cc1cccc(NC(=O)c2cccc(NC(=O)CCl)c2)c1`: the GI50 in the test with NCI/ADR-RES ovarian was 17.3 µM; with SNB-19 CNS, 31.1 µM; with HL-60(TB) leukemia, 13.2 µM; in the test on SF-295 CNS, 51.1 µM; in the test on SF-539 CNS, 13 µM; in the test on RXF 393 renal, 12.7 µM. The GI50 is 17.8 µM in the test with BT-549 breast, 54.7 µM with UACC-257 melanoma, 17.4 µM in the test with KM12 colon and 17.3 µM in the test on RPMI-8226 leukemia. Moreover, the TGI with NCI/ADR-RES ovarian was 53.1 µM; in the test with SNB-19 CNS it was greater than 82.5 µM; with HL-60(TB) leukemia, 39.7 µM; with SF-295 CNS, greater than 82.5 µM; in the test with SF-539 CNS it was 24.5 µM; in the test with RXF 393 renal, 29.8 µM. For the same compound, the TGI in the test on BT-549 breast was 70.4 µM; in the test on UACC-257 melanoma, greater than 82.5 µM; in the test with KM12 colon it was 60.6 µM; with RPMI-8226 leukemia, 59.3 µM.
As to `COC(=O)C1=C(C(=O)ON)[C@@H]2C=C[C@@]1([C@@H](Cc1ccccc1)Nc1ccccc1)O2`, the GI50 in the test on NCI/ADR-RES ovarian is 17.4 µM; in the test with SNB-19 CNS, 16 µM; in the test with HL-60(TB) leukemia, 1.45 µM; with SF-295 CNS, 15.1 µM; with SF-539 CNS, 15.5 µM; in the test with RXF 393 renal, 1.67 µM. The GI50 is 7.06 µM in the test with BT-549 breast, 2.07 µM with UACC-257 melanoma, 15.5 µM in the test with KM12 colon and 2.13 µM with RPMI-8226 leukemia. The TGI with NCI/ADR-RES ovarian came to 35.9 µM; in the test with SNB-19 CNS, 29.5 µM; with HL-60(TB) leukemia, 6.18 µM; in the test on SF-295 CNS, 28.8 µM; in the test with SF-539 CNS it was 29 µM; in the test with RXF 393 renal it was 3.04 µM. Further, the TGI worked out at 19.6 µM with BT-549 breast, 4.5 µM with UACC-257 melanoma, 32.1 µM with KM12 colon and 5.32 µM in the test on RPMI-8226 leukemia.
Turning to `O=c1cc(-c2ccccc2)oc2c1ccc1ccccc12`, the GI50 in the test with NCI/ADR-RES ovarian is 30.5 µM; in the test on SNB-19 CNS it was 6.1 µM; with HL-60(TB) leukemia, 23.9 µM; with SF-539 CNS, 18.6 µM; in the test on RXF 393 renal, 24.1 µM; with BT-549 breast, 21 µM. Further, the GI50 is 54.8 µM in the test on UACC-257 melanoma, 24.9 µM in the test on KM12 colon and 21.7 µM in the test with RPMI-8226 leukemia. For the same compound, the TGI in the test with NCI/ADR-RES ovarian is greater than 100 µM; in the test on SNB-19 CNS it was greater than 100 µM; with HL-60(TB) leukemia, 56.8 µM; in the test with SF-539 CNS it was 76.1 µM; with RXF 393 renal it was 64.4 µM; in the test with BT-549 breast, 55.8 µM. Moreover, the TGI in the test on UACC-257 melanoma was greater than 100 µM; in the test with KM12 colon, 89.2 µM; in the test on RPMI-8226 leukemia, 70.2 µM.

For the origin of these results see PubChem BioAssay (NCI).
